Experimental data as given in article PMC12621189, “Optimization of Selective and CNS Penetrant Alkyne-Based TREK Inhibitors: The Discovery and Characterization of ONO-9517601 (VU6022856) and ONO-7927846 (VU6024391)” (Journal of Medicinal Chemistry, 2025).
“And” between values parts separate entries of the source, which are not always exact repeats. Identical values can stand only once.

Legend:
[1] = Liver microsome intrinsic clearance, rat; assay type: in vitro ADME; conditions: for CLint scaled at 1 µM: pH 7.4, rat liver microsomes, predicted intrinsic clearance, read-out: LMS CLINT rat; for Predicted CLhep rat: from microsomal CLint
Method: were incubated in 100 mM potassium phosphate pH 7.4 buffer with 3 mM MgCl2 at 37 °C with constant shaking. After a 5 min preincubation, the reaction was initiated by the addition of NADPH (1 mM). At selected time intervals (0, 3, 7, 15, 25, and 45 min), aliquots were taken and subsequently placed into a 96-well plate containing cold acetonitrile with internal standard (50 ng/mL carbamazepine). Plates were then centrifuged at 3000 rcf (4 °C) for 10 min, and the supernatant was transferred to a separate 96-well plate and diluted 1:1 with water for LC/MS/MS analysis. The in vitro half-life ( 1/2, min, Eq. 1), intrinsic clearance (CLint, mL/min/kg, Eq. 2), and subsequent predicted hepatic clearance (CLhep, mL/min/kg, Eq. 3) was determined employing the […]
where k represents the slope from linear regression analysis of the natural log percent remaining of a test compound as a function of incubation time […]
(2) CLint = in vitroT x mg microsomes x gram liver x kg body wt ascale-up factors: of 20 (human) or 45 (rat) […]
where Qh (hepatic blood flow, mL/min/kg) is 21 (human) or 70 (rat).
LC/MS/MS Bioanalysis of Samples from Plasma Protein Binding and Intrinsic Clearance […]
Samples were analyzed on a Thermo Electron TSQ Quantum Ultra triple quad mass spectrometer (San Jose, CA) via electrospray ionization (ESI) with two Themo Electron Accella pumps (San Jose, CA), and a Leap Technologies CTC PAL autosampler (Carrboro, NC). Analytes were […]

[2] = target: T1, mouse TREK-1 (mTREK-1) (Mus musculus, UniProt P97438); test: mTREK-1 manual patch clamp assay; assay type: cell-based; conditions: mouse TREK-1, manual patch clamp; read-out: TREK-1 IC50 (mouse, MPC)
T1 construct: expressed in transfected cells; host or cells: CHO-K1 (transient)
T1 sequence (P97438 1-426): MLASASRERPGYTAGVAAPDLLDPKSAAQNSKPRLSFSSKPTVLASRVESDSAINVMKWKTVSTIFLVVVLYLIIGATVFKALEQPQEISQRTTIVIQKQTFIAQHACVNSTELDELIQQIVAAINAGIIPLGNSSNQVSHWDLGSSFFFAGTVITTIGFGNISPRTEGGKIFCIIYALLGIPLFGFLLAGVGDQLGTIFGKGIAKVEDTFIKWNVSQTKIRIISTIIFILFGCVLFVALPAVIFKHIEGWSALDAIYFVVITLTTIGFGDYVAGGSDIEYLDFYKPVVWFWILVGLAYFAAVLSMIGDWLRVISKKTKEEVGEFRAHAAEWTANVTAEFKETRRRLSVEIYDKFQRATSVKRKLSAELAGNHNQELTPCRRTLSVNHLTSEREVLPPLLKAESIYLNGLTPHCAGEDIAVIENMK
Method: hTREK-1 and mTREK-1 patch clamp assay
CHO-K1 cells stably expressing hTREK-1 or CHO-K1 cells transiently expressing mouse TREK-1 (mTREK-1) were plated on glass coverslips, and voltage clamped in the whole-cell configuration of the patch clamp technique. Cells were voltage clamped at a holding potential of - 80 mV and the stepped to 0 mV for 500 msec. The voltage was subsequently ramped from -120mV to +80 mV over a 500 msec duration. This step-ramp protocol was repeated every 10 sec. The bathing solution contained the following: 135 mM NaCl, 5 mM KCl, 2 mM CaCl2, 1 mM MgCl2, 5 mM D-Glucose, 10 mM HEPES, 10 mM sucrose (adjusted to pH 7.4 with NaOH, 300 mosmol/kg H2O). The pipette solution contained the following: 135 mM KCl, 2 mM MgCl2, 1 mM EGTA, 10 mM HEPES, 2 mM Na2ATP (adjusted to pH 7.35 with KOH, 285 mosmol/kg H2O). Test […]
compounds were dissolved into the bathing solution. The effects of test compound on the currents were calculated at 0 mV using the following equations:
% inhibition = (1-post current/pre current) x 100
% inhibition vs compound concentrations were plotted in GraphPad Prism and calculated IC50. […]

[3] = target: T2, human TREK-1 (hTREK-1) (Homo sapiens, UniProt O95069); test: TREK-1 thallium flux assay (CHO-K1 cells stably expressing hTREK-1); assay type: cell-based; conditions: human TREK-1, thallium flux; read-out: h TREK-1 Tl+ IC50
T2 construct: expressed in transfected cells
T2 sequence (O95069 1-426): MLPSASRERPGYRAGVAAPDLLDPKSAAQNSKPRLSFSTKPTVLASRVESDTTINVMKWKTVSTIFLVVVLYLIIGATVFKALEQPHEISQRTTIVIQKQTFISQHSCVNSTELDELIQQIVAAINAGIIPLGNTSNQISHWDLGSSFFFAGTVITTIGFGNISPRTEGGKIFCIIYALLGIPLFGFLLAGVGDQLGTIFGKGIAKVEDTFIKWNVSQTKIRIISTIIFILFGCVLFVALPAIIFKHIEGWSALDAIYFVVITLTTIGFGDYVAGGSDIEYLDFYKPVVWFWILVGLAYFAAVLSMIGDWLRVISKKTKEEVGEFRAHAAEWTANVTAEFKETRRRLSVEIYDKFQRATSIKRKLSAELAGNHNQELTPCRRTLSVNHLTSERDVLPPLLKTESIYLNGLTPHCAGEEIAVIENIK
Outline: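 Cells loaded with FluxOR dye were preincubated 10 min with test compound in 0.3% DMSO, then given thallium stimulus buffer. ΔRatio was fluorescence 25 s after thallium over pre-thallium baseline; % inhibition was normalised between vehicle and 10 μM reference blocker, and IC50 was fitted from concentration–response.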

Row | Structure (SMILES) | CLint scaled at 1 µM [1] | Predicted CLhep rat [1] | IC50 [2] | IC50 [3]
1 | CC(=O)N1CCC(n2ncc(Cl)c2C(=O)Nc2ncc(C#Cc3ccccc3)cc2C)CC1 [Compound 10, 1-(1-Acetylpiperidin-4-yl)-4-chloro-N-(3-methyl-5-(phenylethynyl)pyridin-2-yl)-1H-pyrazole-5-carboxamide] | 62 mL/min/kg | 32.9 mL/min/kg | 67 nM | 67 nM and 70 nM
2 | CC(=O)N1CC[C@@H](n2ncc(Cl)c2C(=O)Nc2ncc(C#Cc3ccc(F)cc3)cc2C)[C@H](F)C1 [Compound 11, 1-((3R,4R)-1-Acetyl-3-fluoropiperidin-4-yl)-4-chloro-N-(5-((4-fluorophenyl)ethynyl)-3-methylpyridin-2-yl)-1H-pyrazole-5-carboxamide] | 40 mL/min/kg | 25.4 mL/min/kg | 760 nM | 110 nM
3 | Cc1cc(C#Cc2ccccc2)cnc1NC(=O)c1cc(OC[C@@H]2COCCO2)ccc1Cl [Compound 7, (S)-5-((1,4-Dioxan-2-yl)methoxy)-2-chloro-N-(3-methyl-5-(phenylethynyl)pyridin-2-yl)benzamide] | – | – | 170 nM | 210 nM
4 | Cc1cc(C#Cc2ccccc2)cnc1NC(=O)c1c(Cl)cnn1[C@H]1CCOC1 [Compound 15a, (S)-4-Chloro-N-(3-methyl-5-(phenylethynyl)pyridin-2-yl)-1-(tetrahydrofuran-3-yl)-1H-pyrazole-5-carboxamide] | 49 mL/min/kg | – | – | 360 nM
